In paper PMC7534311, “Sulphonamide inhibition profile of Staphylococcus aureus β-carbonic anhydrase” (Journal of Enzyme Inhibition and Medicinal Chemistry, 2020):

biological target: hCA II; assay: not given; conditions: human recombinant isozyme, Table 2; cited from earlier work

SMILES	Ki [nM]
NS(=O)(=O)NCCNc1nonc1C(=NO)Nc1ccc(F)c(Br)c1 [EPA, epacadostat]	917
NC(N)=Nc1nc(CSCCC(N)=NS(N)(=O)=O)cs1 [FAM, famotidine]	58

biological target: T1, SauBCA (β-carbonic anhydrase from Staphylococcus aureus) (Staphylococcus aureus, UniProt A0AAJ4SIE8); assay: Stopped-flow CO2 hydration inhibition assay, SauBCA; type: biochemical; conditions: Ki SauBCA, recombinant SauBCA, stopped-flow CO2 hydration, mean from three assays, errors ±5–10%
T1 sequence (A0AAJ4SIE8 1-189): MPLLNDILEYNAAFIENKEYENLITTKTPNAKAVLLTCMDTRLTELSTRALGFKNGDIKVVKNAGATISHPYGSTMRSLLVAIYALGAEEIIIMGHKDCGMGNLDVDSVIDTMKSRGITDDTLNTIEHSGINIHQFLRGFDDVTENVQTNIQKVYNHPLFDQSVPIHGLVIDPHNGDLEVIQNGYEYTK
Method: An Applied Photophysics stopped-flow instrument was used for assaying CA-catalysed CO2 hydration activity. […] Six traces of the initial 5 − 10% of the reaction were used to determine the initial velocity. The uncatalysed rates were determined in the same manner and subtracted from the total observed rates. A stock solution of inhibitor (0.1 mM) was prepared in distilled-deionized water, and dilutions of up to 0.01 nM were prepared thereafter with distilled-deionized water. Inhibitor (I) and enzyme (E) solutions were preincubated together for 15 min at RT prior to the assay to allow formation of the E − I complex. Inhibition constants were obtained by using the Cheng-Prusoff equation and nonlinear least squares methods (with PRISM 3) and are presented as the means from at least three different determinations. Kinetic constants were obtained using Lineweaver-Burke plots as reported earlier.

SMILES	Ki [nM]
Nc1ccc(S(N)(=O)=O)cc1 [compound 2]	409

same assay, conditions: read-out: Ki SauBCA

SMILES	Ki [nM]
CCN[C@H]1CN(CCCOC)S(=O)(=O)c2sc(S(N)(=O)=O)cc21 [BRZ, brinzolamide]	815
Cc1ccc(-c2cc(C(F)(F)F)nn2-c2ccc(S(N)(=O)=O)cc2)cc1 [CLX, celecoxib]	871
CC(=O)/N=c1/sc(S(N)(=O)=O)nn1C [MZA, methazolamide]	863
CC1(C)O[C@@H]2[C@@H](CO[C@@]3(COS(N)(=O)=O)OC(C)(C)O[C@@H]23)O1 [TPM]	466
Cc1onc(-c2ccccc2)c1-c1ccc(S(N)(=O)=O)cc1 [VLX]	509
NS(=O)(=O)Cc1noc2ccccc12 [ZNS, zonisamide]	4550
Nc1nccc(Nc2ccc(S(N)(=O)=O)cc2)n1 [compound 19]	909

same assay, conditions: recombinant SauBCA, stopped-flow CO2 hydration, mean from three assays, errors ±5–10%; read-out: Ki SauBCA

SMILES	Ki [nM]
NS(=O)(=O)NCCNc1nonc1C(=NO)Nc1ccc(F)c(Br)c1 [EPA, epacadostat]	538
O=C1NS(=O)(=O)c2ccccc21 [SAC]	667
NS(=O)(=O)c1cccc(S(N)(=O)=O)c1 [compound 3]	95
Cc1ccc(S(N)(=O)=O)cc1 [compound 4]	83
NCc1ccc(S(N)(=O)=O)cc1 [compound 5]	193
Nc1ccc(S(N)(=O)=O)cc1Cl [compound 8]	95
Nc1ccc(S(N)(=O)=O)cc1Br [compound 9]	75
NS(=O)(=O)c1cc(Cl)cc(Cl)c1O [compound 10]	202
Nc1nnc(S(N)(=O)=O)s1 [compound 13]	417
NS(=O)(=O)c1ccc(CO)cc1 [compound 16]	603
Nc1ccc(S(=O)(=O)Nc2nnc(S(N)(=O)=O)s2)cc1 [compound 20]	92
NS(=O)(=O)c1ccc(CCNS(=O)(=O)c2ccc([N+](=O)[O-])cc2CO)cc1 [compound 21]	85
Nc1ccc(S(=O)(=O)Nc2ccc(S(N)(=O)=O)cc2)cc1 [compound 22]	83
Nc1ccc(S(=O)(=O)NCc2ccc(S(N)(=O)=O)cc2)cc1 [compound 23]	92
Nc1ccc(S(=O)(=O)NCCc2ccc(S(N)(=O)=O)cc2)cc1 [compound 24]	96
